# In ChEMBL document CHEMBL2346586, “N-substituted azaindoles as potent inhibitors of Cdc7 kinase” (Bioorg Med Chem Lett, 2013):
# Key:
# [1] = molecular target: T1, Cell division cycle 7-related protein kinase (Homo sapiens, UniProt O00311); test: Inhibition of CDC7 (unknown origin)
# [2] = molecular target: Cyclin-dependent kinase 2 (Homo sapiens, UniProt P24941); test: Inhibition of CDK2 (unknown origin)
# [3] = Intrinsic clearance in rat liver microsomes; assay type: ADME, Microsome; conditions: read-out: CLH
# [4] = molecular target: T1, Cell division cycle 7-related protein kinase; test: Inhibition of CDC7 in human HCT116 cells assessed as MCM2 phosphorylation; assay type: cell-based, HCT-116
# [5] = species: Homo sapiens; test: Selectivity ratio of IC50 for CDK2 (unknown origin) to IC50 for CDC7 (unknown origin)
# [6] = Intrinsic clearance in human liver microsomes; assay type: ADME, Microsome; conditions: read-out: CLH
# T1 sequence (O00311 whole entry): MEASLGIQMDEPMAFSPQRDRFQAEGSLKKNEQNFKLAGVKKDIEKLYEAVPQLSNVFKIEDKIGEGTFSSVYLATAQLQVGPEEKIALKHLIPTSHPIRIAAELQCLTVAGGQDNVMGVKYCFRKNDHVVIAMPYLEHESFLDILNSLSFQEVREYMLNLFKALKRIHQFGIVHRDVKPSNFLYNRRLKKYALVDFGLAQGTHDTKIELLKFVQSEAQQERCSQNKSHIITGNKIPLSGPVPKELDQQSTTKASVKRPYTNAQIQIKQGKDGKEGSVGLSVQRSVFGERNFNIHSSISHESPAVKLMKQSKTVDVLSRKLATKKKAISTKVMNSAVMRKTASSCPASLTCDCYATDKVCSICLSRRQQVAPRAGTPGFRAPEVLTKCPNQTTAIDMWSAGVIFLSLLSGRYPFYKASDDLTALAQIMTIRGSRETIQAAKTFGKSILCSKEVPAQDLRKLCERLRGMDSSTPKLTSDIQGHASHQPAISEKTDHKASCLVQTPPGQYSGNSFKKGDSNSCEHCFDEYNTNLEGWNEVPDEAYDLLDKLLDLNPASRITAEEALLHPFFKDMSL
SMILES,IC50 [1] [nM],IC50 [2] [nM],microsomal CLint [3] [µL/min/mg],IC50 [4] [nM],Ratio IC50 [5],microsomal CLint [6] [µL/min/mg]
Nc1nccc(-n2cc(-c3ccncc3)c3cnccc32)n1,250,160,,,,
Nc1nccc(-n2cc(-c3cccnc3Cl)c3cnc(Cl)cc32)n1,30,> 83000,102,2300,> 2700,30
C#Cc1ccc2ccn(-c3ccnc(N)n3)c2c1,760,10000,,,,
N#Cc1ccc2ccn(-c3cc(N)ncn3)c2c1,2700,> 83000,,,,
Nc1nccc(-n2cc(-c3cccnc3)c3cnccc32)n1,160,1100,,,7,
Nc1nccc(-n2cc(C3=CCOCC3)c3cnccc32)n1,160,160,,,,
Nc1nccc(-n2cc(-c3ccc(Cl)cc3)c3cnccc32)n1,330,60,,,,
N#Cc1ccc2ccn(-c3ccnc(N)c3)c2c1,9000,39000,122,> 50000,,201
Nc1nccc(-n2cc(-c3ccccc3)c3cnccc32)n1,104,310,,,3,
CNc1nccc(-n2ccc3ccc(C#N)cc32)n1,25,2700,,,,
Nc1nccc(-n2ccc3cnc(Cl)cc32)n1,360,38000,134,> 50000,> 100,104
N#Cc1ccc2ccn(-c3cccc(N)n3)c2c1,10400,45000,,,,
N#Cc1ccc2ccn(-c3nccc(N)n3)c2c1,8800,> 29000,,,,
Nc1nccc(-n2ccc3ccc(F)cc32)n1,156,34000,,,,
N#Cc1ccc2ccn(-c3ccnc(N)n3)c2c1,75,16500,124,5000,220,430
Nc1nccc(-n2ccc3ccncc32)n1,930,45100,64,,,134
Nc1nccc(-n2cc(-c3ccccc3Cl)c3cnccc32)n1,11,110,,,,
Nc1nccc(-n2cc(-c3ccoc3)c3cnccc32)n1,120,100,,,,

SMILES,IC50 [1] [nM],IC50 [2] [nM],microsomal CLint [3] [µL/min/mg],IC50 [4] [nM],Ratio IC50 [5],microsomal CLint [6] [µL/min/mg]
N#Cc1ccc2ccn(-c3cc(N)ncn3)c2n1,9,> 83000,46,1370,,34
N#Cc1ccc2ccn(-c3ccncn3)c2c1,1500,> 83000,,,,
N#Cc1ccc2c(ccn2-c2ccnc(N)n2)c1,8500,> 29100,,,,
N#Cc1cc2c(ccn2-c2ccnc(N)n2)cn1,1240,> 44000,49,,,94
Nc1nccc(-n2ccc3ccc(C(F)(F)F)cc32)n1,1100,17000,,,,
Nc1nccc(-n2cc(-c3cc[nH]n3)c3cnccc32)n1,580,550,,,,
Nc1nccc(-n2ccc3cnccc32)n1,980,3700,101,,,62
Nc1nccc(-n2ccc3ncccc32)n1,12600,21000,50,,,60
N#Cc1cnc2ccn(-c3ccnc(N)n3)c2c1,5300,> 83000,64,,,108
Nc1nccc(-n2ccc3ccc(O)cc32)n1,3300,5000,,,,
Nc1nccc(-n2cc(-c3cccnc3Cl)c3cnccc32)n1,7,310,72,850,44,21
Nc1nccc(-n2ccc3cccnc32)n1,26700,42000,282,> 50000,,338
Nc1nccc(-n2cc(-c3cccc(Cl)c3)c3cnccc32)n1,160,> 83000,,,> 500,
Nc1nccc(-n2ccc3ccc(Br)cc32)n1,350,8200,,,,
Nc1nccc(-n2ccc3ccc(Cl)cc32)n1,66,3700,,,56,
Nc1nccc(-n2ccc3ccc([N+](=O)[O-])cc32)n1,82,> 30600,,,,
Nc1nccc(-n2ccc3ccccc32)n1,4700,28500,375,> 50000,,387
